Test results published in the NIST ThermoML archive (doi:10.1016/j.jct.2014.06.005).
Numbers after ± are expanded uncertainties.

Test: xn = mol fraction of the nth substance listed
Details: Ring tensiometer

**Q.** Which surface tension liquid-gas (298.15 K, x1 = 0.0033) does the source give for `CC(C)CCO` [3-methylbutan-1-ol] + C[S+](C)[O-] here?
**A.** 41.6 ± 1.1 mN/m

**Q.** And the surface tension liquid-gas (298.15 K, x1 = 0.0065)?
**A.** 40.98 ± 1.1 mN/m

**Q.** And the surface tension liquid-gas (298.15 K, x1 = 0.0129)?
**A.** 40.07 ± 1.1 mN/m

**Q.** And the surface tension liquid-gas (298.15 K, x1 = 0.0255)?
**A.** 38.5 ± 1.1 mN/m

**Q.** And the surface tension liquid-gas (298.15 K, x1 = 0.0377)?
**A.** 37.32 ± 1.1 mN/m

**Q.** What about the surface tension liquid-gas (298.15 K, x1 = 0.0783) of the same compound?
**A.** 34.25 ± 1.1 mN/m

**Q.** What about the surface tension liquid-gas (298.15 K, x1 = 0.1307) of the same compound?
**A.** 31.96 ± 1.1 mN/m

**Q.** And the surface tension liquid-gas (298.15 K, x1 = 0.1774)?
**A.** 30.51 ± 1.1 mN/m

**Q.** And the surface tension liquid-gas (298.15 K, x1 = 0.2572)?
**A.** 28.72 ± 1.1 mN/m

**Q.** And the surface tension liquid-gas (298.15 K, x1 = 0.323)?
**A.** 27.65 ± 1.1 mN/m

**Q.** What about the surface tension liquid-gas (298.15 K, x1 = 0.378) of the same compound?
**A.** 26.87 ± 1.1 mN/m

**Q.** What about the surface tension liquid-gas (298.15 K, x1 = 0.4456) of the same compound?
**A.** 26 ± 1.1 mN/m

**Q.** What about the surface tension liquid-gas (298.15 K, x1 = 0.4999) of the same compound?
**A.** 25.54 ± 1.1 mN/m

**Q.** What about the surface tension liquid-gas (298.15 K, x1 = 0.5578) of the same compound?
**A.** 25 ± 1.1 mN/m

**Q.** And the surface tension liquid-gas (298.15 K, x1 = 0.6036)?
**A.** 24.54 ± 1.1 mN/m

**Q.** And the surface tension liquid-gas (298.15 K, x1 = 0.6491)?
**A.** 24.14 ± 1.1 mN/m

**Q.** And the surface tension liquid-gas (298.15 K, x1 = 0.6851)?
**A.** 23.81 ± 1.1 mN/m

**Q.** And the surface tension liquid-gas (298.15 K, x1 = 0.786)?
**A.** 23.42 ± 1.1 mN/m

**Q.** And the surface tension liquid-gas (298.15 K, x1 = 0.8875)?
**A.** 23.16 ± 1.1 mN/m

**Q.** And the surface tension liquid-gas (298.15 K, x1 = 0.9511)?
**A.** 22.95 ± 1.1 mN/m

**Q.** What about the surface tension liquid-gas (298.15 K, x1 = 1) of the same compound?
**A.** 22.83 ± 1.1 mN/m

**Q.** What about the surface tension liquid-gas (308.15 K, x1 = 0.0033) of the same compound?
**A.** 40.66 ± 1.1 mN/m

**Q.** What about the surface tension liquid-gas (308.15 K, x1 = 0.0065) of the same compound?
**A.** 40.12 ± 1.1 mN/m

**Q.** And the surface tension liquid-gas (308.15 K, x1 = 0.0129)?
**A.** 39.09 ± 1.1 mN/m

**Q.** What about the surface tension liquid-gas (308.15 K, x1 = 0.0255) of the same compound?
**A.** 37.78 ± 1.1 mN/m

**Q.** What about the surface tension liquid-gas (308.15 K, x1 = 0.0377) of the same compound?
**A.** 36.8 ± 1.1 mN/m

**Q.** What about the surface tension liquid-gas (308.15 K, x1 = 0.0783) of the same compound?
**A.** 33.78 ± 1.1 mN/m

**Q.** What about the surface tension liquid-gas (308.15 K, x1 = 0.1307) of the same compound?
**A.** 31.49 ± 1.1 mN/m

**Q.** And the surface tension liquid-gas (308.15 K, x1 = 0.1774)?
**A.** 30 ± 1.1 mN/m

**Q.** And the surface tension liquid-gas (308.15 K, x1 = 0.2572)?
**A.** 28.06 ± 1.1 mN/m

**Q.** And the surface tension liquid-gas (308.15 K, x1 = 0.323)?
**A.** 27.06 ± 1.1 mN/m

**Q.** And the surface tension liquid-gas (308.15 K, x1 = 0.378)?
**A.** 26.28 ± 1.1 mN/m

**Q.** What about the surface tension liquid-gas (308.15 K, x1 = 0.4456) of the same compound?
**A.** 25.48 ± 1.1 mN/m

**Q.** What about the surface tension liquid-gas (308.15 K, x1 = 0.4999) of the same compound?
**A.** 24.81 ± 1.1 mN/m

**Q.** And the surface tension liquid-gas (308.15 K, x1 = 0.5578)?
**A.** 24.23 ± 1.1 mN/m

**Q.** And the surface tension liquid-gas (308.15 K, x1 = 0.6036)?
**A.** 23.78 ± 1.1 mN/m

**Q.** What about the surface tension liquid-gas (308.15 K, x1 = 0.6491) of the same compound?
**A.** 23.36 ± 1.1 mN/m

**Q.** And the surface tension liquid-gas (308.15 K, x1 = 0.6851)?
**A.** 23.11 ± 1.1 mN/m

**Q.** What about the surface tension liquid-gas (308.15 K, x1 = 0.786) of the same compound?
**A.** 22.69 ± 1.1 mN/m

**Q.** And the surface tension liquid-gas (308.15 K, x1 = 0.8875)?
**A.** 22.41 ± 1.1 mN/m

**Q.** What about the surface tension liquid-gas (308.15 K, x1 = 0.9511) of the same compound?
**A.** 22.2 ± 1.1 mN/m

**Q.** What about the surface tension liquid-gas (308.15 K, x1 = 1) of the same compound?
**A.** 22.02 ± 1.1 mN/m

**Q.** And the surface tension liquid-gas (318.15 K, x1 = 0.0033)?
**A.** 39.65 ± 1.1 mN/m

**Q.** And the surface tension liquid-gas (318.15 K, x1 = 0.0065)?
**A.** 39.19 ± 1.1 mN/m

**Q.** And the surface tension liquid-gas (318.15 K, x1 = 0.0129)?
**A.** 38.42 ± 1.1 mN/m

**Q.** What about the surface tension liquid-gas (318.15 K, x1 = 0.0255) of the same compound?
**A.** 37.05 ± 1.1 mN/m

**Q.** What about the surface tension liquid-gas (318.15 K, x1 = 0.0377) of the same compound?
**A.** 35.85 ± 1.1 mN/m

**Q.** What about the surface tension liquid-gas (318.15 K, x1 = 0.0783) of the same compound?
**A.** 32.99 ± 1.1 mN/m

**Q.** What about the surface tension liquid-gas (318.15 K, x1 = 0.1307) of the same compound?
**A.** 30.9 ± 1.1 mN/m

**Q.** And the surface tension liquid-gas (318.15 K, x1 = 0.1774)?
**A.** 29.39 ± 1.1 mN/m

**Q.** What about the surface tension liquid-gas (318.15 K, x1 = 0.2572) of the same compound?
**A.** 27.39 ± 1.1 mN/m

**Q.** And the surface tension liquid-gas (318.15 K, x1 = 0.323)?
**A.** 26.37 ± 1.1 mN/m

**Q.** What about the surface tension liquid-gas (318.15 K, x1 = 0.378) of the same compound?
**A.** 25.59 ± 1.1 mN/m

**Q.** What about the surface tension liquid-gas (318.15 K, x1 = 0.4456) of the same compound?
**A.** 24.78 ± 1.1 mN/m

**Q.** What about the surface tension liquid-gas (318.15 K, x1 = 0.4999) of the same compound?
**A.** 24.06 ± 1.1 mN/m

**Q.** And the surface tension liquid-gas (318.15 K, x1 = 0.5578)?
**A.** 23.51 ± 1.1 mN/m

**Q.** And the surface tension liquid-gas (318.15 K, x1 = 0.6036)?
**A.** 22.99 ± 1.1 mN/m

**Q.** And the surface tension liquid-gas (318.15 K, x1 = 0.6491)?
**A.** 22.7 ± 1.1 mN/m

**Q.** And the surface tension liquid-gas (318.15 K, x1 = 0.6851)?
**A.** 22.46 ± 1.1 mN/m

**Q.** What about the surface tension liquid-gas (318.15 K, x1 = 0.786) of the same compound?
**A.** 22.01 ± 1.1 mN/m

**Q.** What about the surface tension liquid-gas (318.15 K, x1 = 0.8875) of the same compound?
**A.** 21.64 ± 1.1 mN/m

**Q.** What about the surface tension liquid-gas (318.15 K, x1 = 0.9511) of the same compound?
**A.** 21.46 ± 1.1 mN/m

**Q.** And the surface tension liquid-gas (318.15 K, x1 = 1)?
**A.** 21.3 ± 1.1 mN/m

**Q.** And the surface tension liquid-gas (328.15 K, x1 = 0.0033)?
**A.** 38.38 ± 1.1 mN/m

**Q.** What about the surface tension liquid-gas (328.15 K, x1 = 0.0065) of the same compound?
**A.** 37.83 ± 1.1 mN/m

**Q.** And the surface tension liquid-gas (328.15 K, x1 = 0.0129)?
**A.** 37.08 ± 1.1 mN/m

**Q.** And the surface tension liquid-gas (328.15 K, x1 = 0.0255)?
**A.** 35.84 ± 1.1 mN/m

**Q.** What about the surface tension liquid-gas (328.15 K, x1 = 0.0377) of the same compound?
**A.** 34.87 ± 1.1 mN/m

**Q.** And the surface tension liquid-gas (328.15 K, x1 = 0.0783)?
**A.** 32.37 ± 1.1 mN/m

**Q.** What about the surface tension liquid-gas (328.15 K, x1 = 0.1307) of the same compound?
**A.** 30.18 ± 1.1 mN/m

**Q.** And the surface tension liquid-gas (328.15 K, x1 = 0.1774)?
**A.** 28.79 ± 1.1 mN/m

**Q.** What about the surface tension liquid-gas (328.15 K, x1 = 0.2572) of the same compound?
**A.** 26.8 ± 1.1 mN/m

**Q.** And the surface tension liquid-gas (328.15 K, x1 = 0.323)?
**A.** 25.6 ± 1.1 mN/m

**Q.** And the surface tension liquid-gas (328.15 K, x1 = 0.378)?
**A.** 24.91 ± 1.1 mN/m

**Q.** And the surface tension liquid-gas (328.15 K, x1 = 0.4456)?
**A.** 23.98 ± 1.1 mN/m

**Q.** What about the surface tension liquid-gas (328.15 K, x1 = 0.4999) of the same compound?
**A.** 23.39 ± 1.1 mN/m

**Q.** And the surface tension liquid-gas (328.15 K, x1 = 0.5578)?
**A.** 22.81 ± 1.1 mN/m

**Q.** What about the surface tension liquid-gas (328.15 K, x1 = 0.6036) of the same compound?
**A.** 22.19 ± 1.1 mN/m

**Q.** And the surface tension liquid-gas (328.15 K, x1 = 0.6491)?
**A.** 21.82 ± 1.1 mN/m

**Q.** And the surface tension liquid-gas (328.15 K, x1 = 0.6851)?
**A.** 21.51 ± 1.1 mN/m

**Q.** And the surface tension liquid-gas (328.15 K, x1 = 0.786)?
**A.** 21.16 ± 1.1 mN/m

**Q.** And the surface tension liquid-gas (328.15 K, x1 = 0.8875)?
**A.** 20.89 ± 1.1 mN/m

**Q.** And the surface tension liquid-gas (328.15 K, x1 = 0.9511)?
**A.** 20.68 ± 1.1 mN/m

**Q.** What about the surface tension liquid-gas (328.15 K, x1 = 1) of the same compound?
**A.** 20.49 ± 1.1 mN/m
